Assay results taken from ChEMBL document CHEMBL1128110, “Enantiodifferentiation of dihydropyridine PAF antagonists” (Bioorg Med Chem Lett, 1995).
Values belong to the compound of their own block, whether it stands above or below them.

Columns and labels:
[1] = system: Mus sp.; experiment: In vivo for PAF antagonist activity in mice after oral administration; type: functional
[2] = Oral bioavailability in dog; type: ADME, organism-based, Canis lupus familiaris; details: in vivo
[3] = Plasma half life was evaluated; type: ADME, organism-based, Canis lupus familiaris; details: dog
[4] = Inhibition of [3H]nitrendipine binding to dihydropyridine sites of bovine frontal cortex membranes; type: tissue-based, Bos taurus
[5] = species on record: Rattus norvegicus; experiment: Calcium channel blocking activity in K+ stimulated rat aorta assay; type: functional
[6] = Plasma half life was evaluated in Dog; type: ADME, organism-based, Canis lupus familiaris
[7] = Half life was evaluated in dog; type: ADME, organism-based, Canis lupus familiaris; details: in vivo
[8] = Plasma half life was evaluated in dog; type: ADME, organism-based, Canis lupus familiaris

SMILES: CCO/C(O)=C1\C(COCCn2c(C)nc3ncccc32)=NC(C)=C(C(=O)Nc2ccccn2)C1c1ccccc1Cl (stereo unspecified)
ED50 ([1]; Mus sp., po, read-out: ED50): 31 mg/kg

bioavailability [2]: 4%
half-life [3]: 0.75 h
SMILES: CCO/C(O)=C1\C(COCCn2c(C)nc3cnccc32)=NC(C)=C(C(=O)Nc2ccccn2)C1c1ccccc1Cl (stereo unspecified)
ED50 ([1]; Mus sp., po, read-out: ED50): 2 mg/kg

SMILES: CCO/C(O)=C1\C(COCCn2c(C)nc3ccccc32)=NC(C)=C(C(=O)Nc2ccccn2)C1c1ccccc1Cl (stereo unspecified)
ED50 ([1]; Mus sp., po, read-out: ED50): 49 mg/kg

SMILES: CCO/C(O)=C1\C(COCCn2c(C)nc(C)c2C)=NC(C)=C(C(=O)NC(C)(C)C)C1c1ccccc1Cl (stereo unspecified)
ED50 ([1]; Mus sp., po, read-out: ED50): 10.1 mg/kg

IC50 [4]: 41 nM
IC50 [5]: 12 nM
SMILES: CCO/C(O)=C1\C(COCCn2c(C)nc(C)c2C)=NC(C)=C(C(=O)OC)[C@@H]1c1ccccc1Cl

SMILES: CCOC(=O)C1=C(c2ccc(-n3c(C)nc4cnccc43)cc2)NC(C)=C(C(=O)Nc2ccccn2)C1c1ccccc1Cl (single isomer, unassigned; (+))
ED50 [1]: 0.15 mg/kg

SMILES: CCO/C(O)=C1\C(COCCn2c(C)nc(C)c2C)=NC(C)=C(C(=O)Nc2ccccc2)C1c1ccccc1Cl (stereo unspecified)
ED50 ([1]; Mus sp., po, read-out: ED50): 18 mg/kg

SMILES: CCO/C(O)=C1\C(COCCn2c(C)nc3cccnc32)=NC(C)=C(C(=O)Nc2ccccn2)C1c1ccccc1Cl (stereo unspecified)
ED50 ([1]; Mus sp., po, read-out: ED50): 25 mg/kg

SMILES: CCO/C(O)=C1\C(COCCn2c(C)nc3ccncc32)=NC(C)=C(C(=O)Nc2ccccn2)C1c1ccccc1Cl (stereo unspecified)
ED50 ([1]; Mus sp., po, read-out: ED50): 29 mg/kg

IC50 [4]: 96 nM
IC50 [5]: 14 nM
SMILES: CCO/C(O)=C1\C(COCCn2c(C)nc(C)c2C)=NC(C)=C(C(=O)OC)C1c1ccccc1Cl (stereo unspecified)

SMILES: CCOC(=O)C1=C(c2ccc(-n3c(C)nc4cnccc43)cc2)NC(C)=C(C(=O)Nc2ccccn2)C1c1ccccc1Cl (single isomer, unassigned; (-))
ED50 [1]: 3.8 mg/kg

half-life [6]: 1.2 h
bioavailability [2]: 30%
SMILES: CCO/C(O)=C1\C(COCCn2c(C)nc3ccccc32)=NC(C)=C(C(=O)NC(C)(C)C)C1c1ccccc1Cl (stereo unspecified)
ED50 ([1]; Mus sp., po, read-out: ED50): 34 mg/kg

bioavailability [2]: 9%
half-life [7]: 4.4 h
SMILES: CCO/C(O)=C1\C(COCCn2c(C)nc(C)c2C)=NC(C)=C(C(=O)Nc2cccc(C)n2)C1c1ccccc1Cl (stereo unspecified)
ED50 ([1]; Mus sp., po, read-out: ED50): 4.5 mg/kg

bioavailability [2]: 100%
half-life [8]: 1.2 h
SMILES: CCOC(=O)C1=C(c2ccc(-n3c(C)nc4cnccc43)cc2)NC(C)=C(C(=O)Nc2ccccn2)C1c1ccccc1Cl (stereo in doubt; 18)
ED50 [1]: 0.26 mg/kg

IC50 [4]: > 10000 nM
IC50 [5]: > 1000 nM
SMILES: CCO/C(O)=C1\C(COCCn2c(C)nc(C)c2C)=NC(C)=C(C(=O)OC)[C@H]1c1ccccc1Cl
